Test results taken from publication PMC7531004, “Discovery of gramicidin A analogues with altered activities by multidimensional screening of a one-bead-one-compound library” (Nature Communications, 2020).
Where a SMILES comes first, the peptide text is derived from it. [ ]: non-standard residue; d: D form. The star is where a group is joined. NHCH2CH2OH = OCCN*; For = O=C*

Experiments:
[1] = test system: P388 mouse leukemia cells; settings: 92 h
In short: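 Peptide stocks diluted 250× in growth medium; P388 cells 1 × 10^4 cells/mL final; 37 °C, 5% CO2, 92 h. WST-1 + 1-methoxy PMS, 4 h, A415. Output: % viability.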

[2] = test system: Streptococcus pyogenes SSI-9; test: Antibacterial activity assay of bead-derived peptides (three concentrations); type: cell-based; parameters: key: +++: inhibition by the 640-fold diluted peptide solution; ++: inhibition by the 160-fold diluted solution; +: inhibition by the 40-fold diluted solution; -: no inhibition; settings: S. pyogenes, bead-derived peptide solution, three concentrations
In short: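 First, each peptide stock was diluted 4- and 16-fold in DMSO; next, the three solutions were mixed with S. pyogenes SSI-9 suspension (2 × 10^5 CFU) in cation-adjusted Mueller Hinton Broth plus 5% laked horse blood; finally, plates stood 18 h at 37 °C before checking for grown-cell precipitation.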

[3] = H+/Na+ transport assay of bead-derived peptides (one-point); type: biochemical; parameters: key: relative activity; mean of two control wells = 1.00; settings: bead-derived peptide solution, EYPC/EYPG LUVs;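 further: relative to parent gramicidin A activity set to 1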
In short: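 Pyranine (1.0 mM)-loaded LUVs containing egg yolk phosphatidylglycerol were prepared by film hydration, sonication and extrusion, then mixed with diluted bead-derived peptide in 96-well format and vortexed 30 min at room temperature. Fluorescence was normalized between untreated LUVs (0%) and Triton X-100 lysis (100%).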

## CC(C)C[C@@H](NC(=O)[C@H](Cc1c[nH]c2ccccc12)NC(=O)[C@@H](CC(C)C)NC(=O)[C@H](Cc1c[nH]c2ccccc12)NC(=O)[C@H](NC(=O)[C@H](Cc1c[nH]c2ccccc12)NC(=O)[C@@H](CC(C)C)NC(=O)[C@@H](NC(=O)[C@H](NC(=O)[C@H](C)NC(=O)[C@H](NC(=O)[C@H](C)NC(=O)CNC(=O)[C@@H](NC=O)C(C)C)C(C)C)C(C)C)C(C)C)C(C)C)C(=O)N[C@@H](Cc1c[nH]c2ccccc12)C(=O)NCCO [compound 8999] (For-VGA[dV]A[dV]V[dL]W[dV]W[dL]W[dL]W-NHCH2CH2OH)
[1]
  cell viability/%: 96.1%
[2]
  antibacterial activity: +
[3]
  H+/Na+ transport activity normalized against the value of 1 (1.00): 1.03

## CC(C)C[C@@H](NC(=O)[C@H](Cc1c[nH]c2ccccc12)NC(=O)[C@H](NC(=O)[C@H](Cc1c[nH]c2ccccc12)NC(=O)[C@H](NC(=O)[C@H](Cc1c[nH]c2ccccc12)NC(=O)[C@H](NC(=O)[C@@H](NC(=O)[C@H](NC(=O)[C@H](C)NC(=O)[C@H](NC(=O)[C@H](C)NC(=O)CNC(=O)[C@@H](NC=O)C(C)C)C(C)C)C(C)C)C(C)C)C(C)C)C(C)C)C(C)C)C(=O)N[C@@H](Cc1c[nH]c2ccccc12)C(=O)NCCO [compound 10699] (For-VGA[dV]A[dV]V[dV]W[dV]W[dV]W[dL]W-NHCH2CH2OH)
[1]
  cell viability/%: 100.0%
[2]
  antibacterial activity: -
[3]
  H+/Na+ transport activity normalized against the value of 1 (1.00): 1.09

## CC(C)C[C@@H](NC(=O)[C@H](C)NC(=O)[C@H](NC(=O)[C@H](C)NC(=O)CNC(=O)[C@@H](NC=O)C(C)C)C(C)C)C(=O)N[C@H](C(=O)N[C@H](CC(C)C)C(=O)N[C@@H](Cc1c[nH]c2ccccc12)C(=O)N[C@@H](C(=O)N[C@@H](Cc1c[nH]c2ccccc12)C(=O)N[C@H](CC(C)C)C(=O)N[C@@H](Cc1c[nH]c2ccccc12)C(=O)N[C@@H](C(=O)N[C@@H](Cc1c[nH]c2ccccc12)C(=O)NCCO)C(C)C)[C@H](C)O)C(C)C [compound 4232] (For-VGA[dV]A[dL]V[dL]W[dT]W[dL]W[dV]W-NHCH2CH2OH)
[1]
  cell viability/%: 93.0%
[2]
  antibacterial activity: -
[3]
  H+/Na+ transport activity normalized against the value of 1 (1.00): 1.05

## CC(C)C[C@@H](NC(=O)[C@H](Cc1c[nH]c2ccccc12)NC(=O)[C@H](NC(=O)[C@H](Cc1c[nH]c2ccccc12)NC(=O)[C@H](NC(=O)[C@H](Cc1c[nH]c2ccccc12)NC(=O)[C@H](NC(=O)[C@@H](NC(=O)[C@H](NC(=O)[C@H](C)NC(=O)[C@H](NC(=O)[C@H](C)NC(=O)CNC(=O)[C@@H](NC=O)C(C)C)C(C)C)C(C)C)C(C)C)C(C)C)C(C)C)C(C)C)C(=O)N[C@@H](Cc1c[nH]c2ccccc12)C(=O)NCCO [compound 12606] (For-VGA[dV]A[dV]V[dV]W[dV]W[dV]W[dL]W-NHCH2CH2OH)
[1]
  cell viability/%: 100.0%
[2]
  antibacterial activity: -
[3]
  H+/Na+ transport activity normalized against the value of 1 (1.00): 1.05

## CC(C)C[C@@H](NC(=O)[C@H](Cc1c[nH]c2ccccc12)NC(=O)[C@H](NC(=O)[C@H](Cc1c[nH]c2ccccc12)NC(=O)[C@@H](CC(C)C)NC(=O)[C@H](Cc1c[nH]c2ccccc12)NC(=O)[C@@H](CC(C)C)NC(=O)[C@@H](NC(=O)[C@H](NC(=O)[C@H](C)NC(=O)[C@H](NC(=O)[C@H](C)NC(=O)CNC(=O)[C@@H](NC=O)C(C)C)C(C)C)C(C)C)C(C)C)[C@H](C)O)C(=O)N[C@@H](Cc1c[nH]c2ccccc12)C(=O)NCCO [compound 10516] (For-VGA[dV]A[dV]V[dL]W[dL]W[dT]W[dL]W-NHCH2CH2OH)
[1]
  cell viability/%: 100.0%
[2]
  antibacterial activity: -
[3]
  H+/Na+ transport activity normalized against the value of 1 (1.00): 1.10

## CC(C)C[C@@H](NC(=O)[C@H](Cc1c[nH]c2ccccc12)NC(=O)[C@@H](CC(C)C)NC(=O)[C@H](Cc1c[nH]c2ccccc12)NC(=O)[C@H](NC(=O)[C@H](Cc1c[nH]c2ccccc12)NC(=O)[C@H](NC(=O)[C@@H](NC(=O)[C@H](NC(=O)[C@H](C)NC(=O)[C@H](NC(=O)[C@H](C)NC(=O)CNC(=O)[C@@H](NC=O)C(C)C)C(C)C)C(C)C)C(C)C)C(C)C)C(C)C)C(=O)N[C@@H](Cc1c[nH]c2ccccc12)C(=O)NCCO [compound 10649] (For-VGA[dV]A[dV]V[dV]W[dV]W[dL]W[dL]W-NHCH2CH2OH)
[1]
  cell viability/%: 100.0%
[2]
  antibacterial activity: ++
[3]
  H+/Na+ transport activity normalized against the value of 1 (1.00): 1.19

## CC(C)C[C@@H](NC(=O)[C@H](Cc1c[nH]c2ccccc12)NC(=O)[C@@H](CC(C)C)NC(=O)[C@@H](NC(=O)[C@H](NC(=O)[C@H](C)NC(=O)[C@H](NC(=O)[C@H](C)NC(=O)CNC(=O)[C@@H](NC=O)C(C)C)[C@H](C)O)C(C)C)C(C)C)C(=O)N[C@@H](Cc1c[nH]c2ccccc12)C(=O)N[C@H](CC(C)C)C(=O)N[C@@H](Cc1c[nH]c2ccccc12)C(=O)N[C@@H](C(=O)N[C@@H](Cc1c[nH]c2ccccc12)C(=O)NCCO)C(C)C [compound 4236] (For-VGA[dT]A[dV]V[dL]W[dL]W[dL]W[dV]W-NHCH2CH2OH)
[1]
  cell viability/%: 93.0%
[2]
  antibacterial activity: -
[3]
  H+/Na+ transport activity normalized against the value of 1 (1.00): 1.43

## CC(C)C[C@@H](NC(=O)[C@H](C)NC(=O)[C@H](NC(=O)[C@H](C)NC(=O)CNC(=O)[C@@H](NC=O)C(C)C)C(C)C)C(=O)N[C@H](C(=O)N[C@H](CC(C)C)C(=O)N[C@@H](Cc1c[nH]c2ccccc12)C(=O)N[C@@H](C(=O)N[C@@H](Cc1c[nH]c2ccccc12)C(=O)N[C@H](CC(C)C)C(=O)N[C@@H](Cc1c[nH]c2ccccc12)C(=O)N[C@H](CC(C)C)C(=O)N[C@@H](Cc1c[nH]c2ccccc12)C(=O)NCCO)C(C)C)C(C)C [compound 11439] (For-VGA[dV]A[dL]V[dL]W[dV]W[dL]W[dL]W-NHCH2CH2OH)
[1]
  cell viability/%: 8.1%
[2]
  antibacterial activity: -
[3]
  H+/Na+ transport activity normalized against the value of 1 (1.00): 1.18

## CNC(=O)C[C@@H](NC(=O)[C@@H](NC(=O)[C@@H](CC(C)C)NC(=O)[C@H](C)NC(=O)[C@H](NC(=O)[C@H](C)NC(=O)CNC(=O)[C@@H](NC=O)C(C)C)C(C)C)C(C)C)C(=O)N[C@@H](Cc1c[nH]c2ccccc12)C(=O)N[C@H](CC(C)C)C(=O)N[C@@H](Cc1c[nH]c2ccccc12)C(=O)N[C@@H](C(=O)N[C@@H](Cc1c[nH]c2ccccc12)C(=O)N[C@@H](C(=O)N[C@@H](Cc1c[nH]c2ccccc12)C(=O)NCCO)C(C)C)C(C)C [compound 12707] (For-VGA[dV]A[dL]V[dD](NHMe)W[dL]W[dV]W[dV]W-NHCH2CH2OH)
[1]
  cell viability/%: 100.0%
[2]
  antibacterial activity: -
[3]
  H+/Na+ transport activity normalized against the value of 1 (1.00): 1.06

## CNC(=O)C[C@@H](NC(=O)[C@@H](NC(=O)[C@H](NC(=O)[C@H](C)NC(=O)[C@H](NC(=O)[C@H](C)NC(=O)CNC(=O)[C@@H](NC=O)C(C)C)C(C)C)C(C)C)C(C)C)C(=O)N[C@@H](Cc1c[nH]c2ccccc12)C(=O)N[C@H](CC(C)C)C(=O)N[C@@H](Cc1c[nH]c2ccccc12)C(=O)N[C@H](CC(C)C)C(=O)N[C@@H](Cc1c[nH]c2ccccc12)C(=O)N[C@@H](C(=O)N[C@@H](Cc1c[nH]c2ccccc12)C(=O)NCCO)C(C)C [compound 231] (For-VGA[dV]A[dV]V[dD](NHMe)W[dL]W[dL]W[dV]W-NHCH2CH2OH)
[1]
  cell viability/%: 100.0%
[2]
  antibacterial activity: -
[3]
  H+/Na+ transport activity normalized against the value of 1 (1.00): 1.14

## CC(C)C[C@@H](NC(=O)[C@H](C)NC(=O)[C@H](NC(=O)[C@H](C)NC(=O)CNC(=O)[C@@H](NC=O)C(C)C)C(C)C)C(=O)N[C@H](C(=O)N[C@@H](C(=O)N[C@@H](Cc1c[nH]c2ccccc12)C(=O)N[C@H](CC(C)C)C(=O)N[C@@H](Cc1c[nH]c2ccccc12)C(=O)N[C@@H](C(=O)N[C@@H](Cc1c[nH]c2ccccc12)C(=O)N[C@H](CC(C)C)C(=O)N[C@@H](Cc1c[nH]c2ccccc12)C(=O)NCCO)C(C)C)C(C)C)C(C)C [compound 660] (For-VGA[dV]A[dL]V[dV]W[dL]W[dV]W[dL]W-NHCH2CH2OH)
[1]
  cell viability/%: 15.6%
[2]
  antibacterial activity: ++
[3]
  H+/Na+ transport activity normalized against the value of 1 (1.00): 1.06

## CC(C)C[C@@H](NC(=O)[C@H](Cc1c[nH]c2ccccc12)NC(=O)[C@H](NC(=O)[C@H](Cc1c[nH]c2ccccc12)NC(=O)[C@H](NC(=O)[C@H](Cc1c[nH]c2ccccc12)NC(=O)[C@@H](CC(C)C)NC(=O)[C@@H](NC(=O)[C@H](NC(=O)[C@H](C)NC(=O)[C@H](NC(=O)[C@H](C)NC(=O)CNC(=O)[C@@H](NC=O)C(C)C)[C@H](C)O)C(C)C)C(C)C)C(C)C)C(C)C)C(=O)N[C@@H](Cc1c[nH]c2ccccc12)C(=O)NCCO [compound 10500] (For-VGA[dT]A[dV]V[dL]W[dV]W[dV]W[dL]W-NHCH2CH2OH)
[1]
  cell viability/%: 100.0%
[2]
  antibacterial activity: -
[3]
  H+/Na+ transport activity normalized against the value of 1 (1.00): 1.14

## CC(C)C[C@@H](NC(=O)[C@H](C)NC(=O)[C@H](NC(=O)[C@H](C)NC(=O)CNC(=O)[C@@H](NC=O)C(C)C)[C@H](C)O)C(=O)N[C@H](C(=O)N[C@@H](C(=O)N[C@@H](Cc1c[nH]c2ccccc12)C(=O)N[C@@H](C(=O)N[C@@H](Cc1c[nH]c2ccccc12)C(=O)N[C@H](CC(C)C)C(=O)N[C@@H](Cc1c[nH]c2ccccc12)C(=O)N[C@H](CC(C)C)C(=O)N[C@@H](Cc1c[nH]c2ccccc12)C(=O)NCCO)C(C)C)C(C)C)C(C)C [compound 4652] (For-VGA[dT]A[dL]V[dV]W[dV]W[dL]W[dL]W-NHCH2CH2OH)
[1]
  cell viability/%: 100.0%
[2]
  antibacterial activity: -
[3]
  H+/Na+ transport activity normalized against the value of 1 (1.00): 1.03
